26 compounds from ChEMBL document CHEMBL4680352, “Rational design and synthesis of 6-aryl-6H-benzo[c]chromenes as non-steroidal progesterone receptor antagonists for use against cancers” (Bioorg Med Chem, 2021) can be followed below.

In assay [1] the test system is MCF7. The experiment in a line: Antiproliferative activity against human MCF7 cells assessed as inhibition of cell viability after 72 hrs by CCK-8 assay. Conditions: MCF7, 72 h. It counts as functional, cell-based.
For assay [2], the system named is MCF7. Put plainly: Antiproliferative activity against human MCF7 cells assessed as inhibition of cell viability at 20 uM after 72 hrs by CCK-8 assay relative to control. It counts as functional.
Assay [3] has as its system A549. The experiment in a line: Antiproliferative activity against human A549 cells assessed as inhibition of cell viability at 20 uM after 72 hrs by CCK-8 assay relative to control. It counts as functional.
The subject of assay [4] is BGC-823. Put plainly: Antiproliferative activity against human BGC-823 cells assessed as inhibition of cell viability at 20 uM after 72 hrs by CCK-8 assay relative to control. It counts as functional.
The subject of assay [5] is PC-3. Put plainly: Antiproliferative activity against human PC-3 cells assessed as inhibition of cell viability at 20 uM after 72 hrs by CCK-8 assay relative to control. It counts as functional.
For assay [6], the system named is MDA-MB-231. Put plainly: Antiproliferative activity against human MDA-MB-231 cells assessed as inhibition of cell viability at 20 uM after 72 hrs by CCK-8 assay relative to control. It counts as functional.
Assay [7] relates to MDA-MB-231. Put plainly: Antiproliferative activity against human MDA-MB-231 cells assessed as inhibition of cell viability after 72 hrs by CCK-8 assay. It counts as functional, cell-based. The conditions noted are these: MDA-MB-231, 72 h.
Another assay deals with MCF-10A. Put plainly: Cytotoxicity against human MCF-10A cells assessed as inhibition of cell viability after 72 hrs by CCK-8 assay. It counts as cell-based.
Assay [8] relates to A549. The experiment in a line: Antiproliferative activity against human A549 cells assessed as inhibition of cell viability after 72 hrs by CCK-8 assay. It counts as functional, cell-based. The conditions noted are these: A549, 72 h.
Assay [9] in a line: Selectivity index, ratio of IC50 for human MCF-10A cells to IC50 for human MCF-7 cells.
Assay [10] deals with BGC-823. Put plainly: Antiproliferative activity against human BGC-823 cells assessed as inhibition of cell viability after 72 hrs by CCK-8 assay. It counts as functional, cell-based. Conditions: BGC-823, 72 h.
In assay [11] the test system is PC-3. The experiment in a line: Antiproliferative activity against human PC-3 cells assessed as inhibition of cell viability after 72 hrs by CCK-8 assay. It counts as functional, cell-based. Conditions: PC-3, 72 h.

Take `CC#C[C@]1(O)CC[C@H]2[C@@H]3CCC4=CC(=O)CCC4=C3[C@@H](c3ccc(N(C)C)cc3)C[C@@]21C` [MIFEPRISTONE]: in the assay on MCF7 [1], the IC50 is 24 µM.

For the compound `COc1ccc(C2Oc3ccc(Br)cc3-c3ccccc32)cc1` (stereo unspecified), the inhibition at 20 µM was determined as 26.6% in the assay on MCF7 [2]; 28.9% in the assay on A549 [3]; 37.8% in the assay on BGC-823 [4]; 36.1% in the assay on PC-3 [5]; 36.1% with MDA-MB-231 [6].

Regarding `CCOc1ccc(C2Oc3ccccc3-c3cc(OC)ccc32)cc1` (stereo unspecified), the inhibition at 20 µM with MCF7 [2] was determined as 41.1%; with A549 [3], 40.5%; in the assay on BGC-823 [4], 26.6%; in the assay with PC-3 [5], 45%; with MDA-MB-231 [6], 28.3%.

Turning to `COc1ccc2c(c1)-c1ccccc1OC2c1cccs1` (stereo unspecified), the inhibition at 20 µM in the assay with MCF7 [2] is 53.1%; in the assay on A549 [3] it was 43.9%; in the assay with BGC-823 [4], 28.2%; in the assay on PC-3 [5] it was 53.7%; in the assay with MDA-MB-231 [6], 38.6%.

For `COc1ccc(C2Oc3cc(C)ccc3-c3ccccc32)cc1` (stereo unspecified), the inhibition at 20 µM in the assay on MCF7 [2] was 30.3%; with A549 [3], 22.6%; in the assay with BGC-823 [4], 32.9%; in the assay on PC-3 [5], 38.1%; with MDA-MB-231 [6], 25.6%.

Regarding `COc1ccc(C2Oc3ccc(C)cc3-c3ccccc32)cc1` (stereo unspecified), the inhibition at 20 µM came out at 32.9% in the assay with MCF7 [2]; 29.4% in the assay with A549 [3]; 27.6% in the assay on BGC-823 [4]; 36.3% with PC-3 [5]; 23.2% in the assay with MDA-MB-231 [6].

`COc1ccc2c(c1)-c1ccccc1OC2c1ccc(SC)cc1` (stereo unspecified): the inhibition at 20 µM was determined as 41.4% in the assay on MCF7 [2]; 31.8% in the assay with A549 [3]; 39.4% in the assay with BGC-823 [4]; 39.7% in the assay with PC-3 [5]; 35.3% in the assay on MDA-MB-231 [6].

Take `COc1ccc(C2Oc3ccccc3-c3cc(OC)ccc32)cc1` (stereo unspecified): the inhibition at 20 µM in the assay with MCF7 [2] came out at 59.6%; with A549 [3], 49.6%; in the assay with BGC-823 [4], 50.6%; with PC-3 [5], 55.4%; with MDA-MB-231 [6] it was 52.7%.

Take `COc1ccc2c(c1)-c1ccccc1OC2c1cccc(OC)c1OC` (stereo unspecified): the IC50 was 22.5 µM in the assay with MDA-MB-231 [7]; 47.9 µM in the assay on MCF-10A; 17 µM in the assay on A549 [8]; 9.23 µM in the assay with BGC-823 [10]; 15.2 µM in the assay with MCF7 [1]; 7.86 µM in the assay on PC-3 [11]. Also, the “Ratio IC50” value in [9] amounted to 3.15.

With `COc1ccc(C2Oc3ccccc3-c3ccccc32)cc1` (stereo unspecified), the inhibition at 20 µM with MCF7 [2] came out at 34.4%; in the assay with A549 [3] it was 29.9%; in the assay with BGC-823 [4], 34.1%; in the assay on PC-3 [5] it was 37%; in the assay with MDA-MB-231 [6], 21.2%.

For the compound `Cc1ccc(C2Oc3ccccc3-c3ccccc32)cc1` (stereo unspecified), the inhibition at 20 µM is 30.2% with MCF7 [2]; 23.5% with A549 [3]; 25% with BGC-823 [4]; 26% with PC-3 [5]; 23.7% with MDA-MB-231 [6].

For the compound `c1ccc(C2Oc3ccccc3-c3ccccc32)cc1` (stereo unspecified), the inhibition at 20 µM with MCF7 [2] is 25.3%; in the assay with A549 [3] it was 23.8%; in the assay on BGC-823 [4], 18.8%; in the assay with PC-3 [5], 19.2%; with MDA-MB-231 [6], 27.2%.

Turning to `COc1cccc(C2Oc3ccccc3-c3cc(OC)c(OC)cc32)c1` (stereo unspecified), the IC50 worked out at 13.8 µM in the assay on MDA-MB-231 [7]; 60.3 µM in the assay on MCF-10A; 11.7 µM in the assay on A549 [8]; 8.99 µM with BGC-823 [10]; 9.53 µM in the assay on MCF7 [1]; 10.1 µM with PC-3 [11]. For the same compound, the “Ratio IC50” value in [9] came out at 6.33.

On to `COc1ccc2c(c1)-c1ccccc1OC2c1ccccc1` (stereo unspecified), for which the inhibition at 20 µM was determined as 25.6% in the assay on MCF7 [2]; 32% in the assay with A549 [3]; 30.5% in the assay on BGC-823 [4]; 31.8% in the assay on PC-3 [5]; 30.6% in the assay with MDA-MB-231 [6].

On to `COc1ccc2c(c1)-c1ccccc1OC2c1ccc(O[Si](C)(C)C(C)(C)C)cc1` (stereo unspecified), for which the inhibition at 20 µM in the assay with MCF7 [2] was 31.4%; in the assay on A549 [3], 31.2%; in the assay with BGC-823 [4], 25.5%; in the assay with PC-3 [5], 36.5%; with MDA-MB-231 [6], 31%.

Take `COc1ccc(C2Oc3ccc(OC)cc3-c3ccccc32)cc1` (stereo unspecified): the inhibition at 20 µM amounted to 34.7% in the assay with MCF7 [2]; 36.2% with A549 [3]; 42.5% in the assay with BGC-823 [4]; 36.3% in the assay on PC-3 [5]; 28.2% with MDA-MB-231 [6].

Consider `COc1ccc2c(c1)-c1ccccc1OC2c1ccccc1C` (stereo unspecified), for which the inhibition at 20 µM in the assay with MCF7 [2] is 69.7%; with A549 [3], 60.9%; in the assay with BGC-823 [4], 64.2%; with PC-3 [5] it was 66%; in the assay with MDA-MB-231 [6], 59.8%. Besides, the IC50 turned out to be 7.41 µM in the assay on MDA-MB-231 [7]; 44.6 µM in the assay on MCF-10A; 8.54 µM in the assay with A549 [8]; 8.52 µM with BGC-823 [10]; 9.29 µM with MCF7 [1]; 9.62 µM in the assay with PC-3 [11]. The “Ratio IC50” value in assay [9] amounted to 4.8.

For `COc1ccc(C2Oc3ccccc3-c3ccc(OC)cc32)cc1` (stereo unspecified), the inhibition at 20 µM in the assay on MCF7 [2] was determined as 45.5%; in the assay on A549 [3] it was 43.6%; in the assay with BGC-823 [4], 47.1%; in the assay on PC-3 [5] it was 44.7%; in the assay with MDA-MB-231 [6], 43.2%.

In the case of `COc1ccc2c(c1)-c1ccccc1OC2c1cccc(C)c1` (stereo unspecified), the inhibition at 20 µM in the assay with MCF7 [2] amounted to 33.8%; in the assay with A549 [3], 34.4%; in the assay with BGC-823 [4], 32%; in the assay on PC-3 [5] it was 42.3%; in the assay with MDA-MB-231 [6] it was 24.9%.

In the case of `COc1ccc2c(c1)-c1ccccc1OC2c1ccc(C)cc1` (stereo unspecified), the inhibition at 20 µM in the assay on MCF7 [2] was 40.4%; in the assay on A549 [3], 31.1%; with BGC-823 [4], 37.4%; in the assay on PC-3 [5], 38.9%; with MDA-MB-231 [6], 35.7%.

With `COc1ccc2c(c1)-c1ccccc1OC2c1ccc(Br)cc1` (stereo unspecified), the inhibition at 20 µM was 40.5% in the assay on MCF7 [2]; 38.8% in the assay with A549 [3]; 24.1% with BGC-823 [4]; 43.9% in the assay on PC-3 [5]; 31% with MDA-MB-231 [6].

With `CCOc1ccc(C2Oc3ccccc3-c3ccccc32)cc1` (stereo unspecified), the inhibition at 20 µM came out at 32% in the assay on MCF7 [2]; 34.9% in the assay with A549 [3]; 26.4% in the assay with BGC-823 [4]; 34% in the assay on PC-3 [5]; 35.6% in the assay with MDA-MB-231 [6].

In the case of `c1ccc2c(c1)OC(c1cccc3ccccc13)c1ccccc1-2` (stereo unspecified), the inhibition at 20 µM worked out at 26.4% with MCF7 [2]; 31.5% in the assay on A549 [3]; 26.1% in the assay on BGC-823 [4]; 34% in the assay with PC-3 [5]; 30.6% in the assay with MDA-MB-231 [6].

On to `COc1cccc(C2Oc3ccccc3-c3cc(OC)ccc32)c1` (stereo unspecified), for which the inhibition at 20 µM was found to be 69.4% in the assay on MCF7 [2]; 56.3% with A549 [3]; 51.9% in the assay on BGC-823 [4]; 57% in the assay with PC-3 [5]; 66.1% in the assay with MDA-MB-231 [6]. For the same compound, the IC50 turned out to be 18.6 µM in the assay with MDA-MB-231 [7]; 58.5 µM with MCF-10A; 17 µM with A549 [8]; 13.2 µM in the assay on BGC-823 [10]; 9.94 µM in the assay with MCF7 [1]; 14.3 µM with PC-3 [11]. In addition, the “Ratio IC50” value in assay [9] stood at 5.88.

With `COc1ccc2c(c1)-c1ccccc1OC2c1ccc(Cl)cc1` (stereo unspecified), the inhibition at 20 µM with MCF7 [2] came out at 35.6%; in the assay with A549 [3] it was 36%; in the assay with BGC-823 [4] it was 37%; with PC-3 [5] it was 41.1%; with MDA-MB-231 [6], 32.4%.

With `COc1ccc2c(c1)-c1ccccc1OC2c1ccccc1OC` (stereo unspecified), the IC50 amounted to 15.2 µM in the assay on MDA-MB-231 [7]; 61.6 µM with MCF-10A; 23.5 µM in the assay with A549 [8]; 26.1 µM in the assay with BGC-823 [10]; 8.92 µM in the assay with MCF7 [1]; 21.4 µM in the assay with PC-3 [11]. The “Ratio IC50” value in assay [9] is given as 6.9.
